In US8592455B2 (priority 2008, dated 2013):

Legend:
Pim3 kinase = Pim3 kinase (Homo sapiens (Human), UniProt Q86V86); details: read-out: Pim3 IC50
Pim1 kinase = Pim1 kinase (Homo sapiens (Human), UniProt P11309); details: read-out: Pim1 IC50
Chain of Pim1 kinase (P11309 whole entry): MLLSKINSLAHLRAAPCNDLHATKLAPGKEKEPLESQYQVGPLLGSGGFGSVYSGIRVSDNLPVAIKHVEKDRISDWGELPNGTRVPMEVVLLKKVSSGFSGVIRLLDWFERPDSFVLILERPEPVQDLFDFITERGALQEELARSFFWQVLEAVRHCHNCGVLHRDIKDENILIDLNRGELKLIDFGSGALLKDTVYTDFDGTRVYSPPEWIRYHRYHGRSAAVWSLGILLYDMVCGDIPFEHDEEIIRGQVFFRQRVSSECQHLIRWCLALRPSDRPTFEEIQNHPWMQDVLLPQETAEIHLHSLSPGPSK

Compound	IC50 (Pim3 kinase) [nM]	IC50 (Pim1 kinase) [nM]
C[C@@H]1C[C@H](c2ccncc2NC(=O)c2cccc(-c3c(F)cccc3F)n2)C[C@H](N)[C@H]1O (stereo in doubt) [Example 52, N-(4-((1S,3S,4S,5R)-3-amino-4-hydroxy-5-methylcyclohexyl)pyridin-3-yl)-6-(2,6-difluorophenyl)picolinamide]	2	1
C[C@H]1C[C@@H](c2ccncc2NC(=O)c2ccc(F)c(C3CCCCC3)n2)C[C@@H](N)[C@@H]1O (stereo in doubt) [Example 89, N-(4-(3-amino-4-hydroxy-5-methylcyclohexyl)pyridin-3-yl)-6-cyclohexyl-5-fluoropicolinamide]	29	8
C[C@H]1C[C@@H](c2ccncc2NC(=O)c2nc(C3CCCCC3)ccc2N)C[C@@H](N)[C@@H]1O (stereo in doubt) [Example 90, 3-amino-N-(4-(3-amino-4-hydroxy-5-methylcyclohexyl)pyridin-3-yl)-6-cyclohexylpicolinamide]	12	3
C[C@@H]1C[C@H](N)C[C@H](c2ccncc2NC(=O)c2ccc(F)c(C3CCCCC3)n2)C1 (stereo in doubt) [Example 91, N-(4-(3-amino-5-methylcyclohexyl)pyridin-3-yl)-6-cyclohexyl-5-fluoropicolinamide]	21	3
CC(=O)O[C@H]1CC[C@@H](c2ccncc2NC(=O)c2nc(-c3c(F)cccc3F)ccc2N)C[C@H]1N (stereo in doubt) [Example 101, 2-amino-4-(3-(3-amino-6-(2,6-difluorophenyl)picolinamido)pyridin-4-yl)cyclohexyl acetate]	5	2
C[C@H]1C[C@@H](c2ccncc2NC(=O)c2nc(-c3c(F)cccc3F)c(F)cc2N)C[C@@H](N)[C@@H]1O (stereo in doubt) [Example 130, 3-amino-N-(4-(3-amino-4-hydroxy-5-methylcyclohexyl)pyridin-3-yl)-6-(2,6-difluorophenyl)-5-fluoropicolinamide]	–	2
Nc1cc(F)c(-c2c(F)cccc2F)nc1C(=O)Nc1cnccc1[C@@H]1CC[C@H](O)[C@H](N)C1 (stereo in doubt) [Example 131, 3-amino-N-(4-(3-amino-4-hydroxycyclohexyl)pyridin-3-yl)-6-(2,6-difluorophenyl)-5-fluoropicolinamide]	–	2
C[C@H]1C[C@@H](c2ccncc2NC(=O)c2nc(-c3c(F)cccc3F)c(F)cc2N)C[C@@H](N)[C@H]1O (stereo in doubt) [Example 132, 3-amino-N-(4-(3-amino-4-hydroxy-5-methylcyclohexyl)pyridin-3-yl)-6-(2,6-difluorophenyl)-5-fluoropicolinamide]	–	1
C[C@@H]1C[C@H](N)C[C@H](c2ccncc2NC(=O)c2nc(-c3c(F)cccc3F)c(F)cc2N)C1 (stereo in doubt) [Example 133, 3-amino-N-(4-(3-amino-5-methylcyclohexyl)pyridin-3-yl)-6-(2,6-difluorophenyl)-5-fluoropicolinamide]	7	1
C[C@H]1C[C@@H](c2ccncc2NC(=O)c2ccc(F)c(-c3c(F)cc(O)cc3F)n2)C[C@@H](N)[C@@H]1O [Example 4, N-(4-((1R,3R,4R,5S)-3-amino-4-hydroxy-5-methylcyclohexyl)pyridin-3-yl)-6-(2,6-difluoro-4-hydroxyphenyl)-5-fluoropicolinamide]	2	1
C[C@H]1C[C@@H](c2ccncc2NC(=O)c2ccc(F)c(-c3cc(O)ccc3F)n2)C[C@@H](N)[C@@H]1O [Example 5, N-(4-((1R,3R,4R,5S)-3-amino-4-hydroxy-5-methylcyclohexyl)pyridin-3-yl)-5-fluoro-6-(2-fluoro-5-hydroxyphenyl)picolinamide]	9	3
N[C@H]1CCC[C@@H](c2ccncc2NC(=O)c2cccc(-c3cc(O)ccc3F)n2)C1 [Example 7, N-(4-((1R,3S)-3-aminocyclohexyl)pyridin-3-yl)-6-(2-fluoro-5-hydroxyphenyl)picolinamide]	2	1
N[C@H]1CCC[C@@H](c2ccncc2NC(=O)c2cccc(-c3c(F)cc(O)cc3F)n2)C1 [Example 8, N-(4-((1R,3S)-3-aminocyclohexyl)pyridin-3-yl)-6-(2,6-difluoro-4-hydroxyphenyl)picolinamide]	2	1
N[C@H]1CCC[C@@H](c2ccncc2NC(=O)c2ccc(F)c(-c3ccc(O)cc3F)n2)C1 [Example 9, N-(4-((1R,3S)-3-aminocyclohexyl)pyridin-3-yl)-5-fluoro-6-(2-fluoro-4-hydroxyphenyl)picolinamide]	2	1
CC1(C)C[C@H](N)C[C@H](c2ccncc2NC(=O)c2ccc(F)c(-c3ccc(O)cc3F)n2)C1 [Example 10, N-(4-((1R,5R)-5-amino-3,3-dimethylcyclohexyl)pyridin-3-yl)-5-fluoro-6-(2-fluoro-4-hydroxyphenyl)picolinamide]	6	1
Cc1ccc(F)c(-c2nc(C(=O)Nc3cnccc3[C@H]3C[C@@H](N)CC(C)(C)C3)ccc2F)c1F [Example 11, N-(4-((1R,5R)-5-amino-3,3-dimethylcyclohexyl)pyridin-3-yl)-6-(2,6-difluoro-3-methylphenyl)-5-fluoropicolinamide]	4	1

Compound	IC50 (Pim3 kinase) [nM]	IC50 (Pim1 kinase) [nM]
Cc1ccc(F)c(-c2cccc(C(=O)Nc3cnccc3N3C[C@@H](N)[C@H](O)[C@@H](C)C3)n2)c1F [Example 13, N-(4-((3R,4R,5S)-3-amino-4-hydroxy-5-methylpiperidin-1-yl)pyridin-3-yl)-6-(2,6-difluoro-3-methylphenyl)picolinamide]	3	1
C[C@H]1CN(c2ccncc2NC(=O)c2ccc(F)c(C3CCCCC3)n2)C[C@@H](N)[C@@H]1O [Example 16, N-(4-((3R,4R,5S)-3-amino-4-hydroxy-5-methylpiperidin-1-yl)pyridin-3-yl)-6-cyclohexyl-5-fluoropicolinamide]	–	1
C[C@H]1CN(c2ccncc2NC(=O)c2ccc(F)c(-c3ccccc3F)n2)C[C@@H](N)[C@@H]1O [Example 25, N-(4-((3R,4R,5S)-3-amino-4-hydroxy-5-methylpiperidin-1-yl)pyridin-3-yl)-5-fluoro-6-(2-fluorophenyl)picolinamide]	–	1
C[C@H]1CN(c2ccncc2NC(=O)c2cccc(-c3c(F)cccc3F)n2)C[C@@H](N)[C@@H]1O [Example 26, N-(4-((3R,4R,5S)-3-amino-4-hydroxy-5-methylpiperidin-1-yl)pyridin-3-yl)-6-(2,6-difluorophenyl)picolinamide]	–	1
C[C@@H]1C[C@H](N)C[C@H](c2ccncc2NC(=O)c2nc(-c3c(F)cc(O)cc3F)ccc2F)C1 [Example 42, N-(4-((1R,3S,5S)-3-amino-5-methylcyclohexyl)pyridin-3-yl)-6-(2,6-difluoro-4-hydroxyphenyl)-3-fluoropicolinamide]	–	1
COc1ccc(F)c(-c2nc(C(=O)Nc3cnccc3[C@@H]3C[C@H](C)C[C@H](N)C3)ccc2F)c1 [Example 45, N-(4-((1R,3S,5S)-3-amino-5-methylcyclohexyl)pyridin-3-yl)-5-fluoro-6-(2-fluoro-5-methoxyphenyl)picolinamide]	–	1
C[C@@H]1C[C@H](N)C[C@H](c2ccncc2NC(=O)c2ccc(F)c([C@H]3CC[C@@H](O)CC3)n2)C1 [Example 54, N-(4-((1R,3S,5S)-3-amino-5-methylcyclohexyl)pyridin-3-yl)-5-fluoro-6-((1s,4s)-4-hydroxycyclohexyl)picolinamide]	–	3
C[C@@H]1C[C@H](N)C[C@H](c2ccncc2NC(=O)c2ccc(F)c([C@H]3CC[C@H](O)CC3)n2)C1 [Example 55, N-(4-((1R,3S,5S)-3-amino-5-methylcyclohexyl)pyridin-3-yl)-5-fluoro-6-((1r,4r)-4-hydroxycyclohexyl)picolinamide]	–	3
Nc1cc(F)c(-c2c(F)cccc2F)nc1C(=O)Nc1cnccc1[C@@H]1CC[C@H](O)[C@H](N)C1 [Example 65, 3-amino-N-(4-((1R,3R,4S)-3-amino-4-hydroxycyclohexyl)pyridin-3-yl)-6-(2,6-difluorophenyl)-5-fluoropicolinamide]	–	1
Nc1ccc(-c2c(F)cccc2F)nc1C(=O)Nc1cnccc1[C@@H]1CC[C@H](O)[C@@H](N)C1 [Example 104, 3-amino-N-(4-((1R,3S,4S)-3-amino-4-hydroxycyclohexyl)pyridin-3-yl)-6-(2,6-difluorophenyl)picolinamide]	–	3
Nc1ccc(-c2c(F)cccc2F)nc1C(=O)Nc1cnccc1C1=CC(N)CCC1 (stereo not drawn) [Example 107, 3-amino-N-(4-(3-aminocyclohex-1-enyl)pyridin-3-yl)-6-(2,6-difluorophenyl)picolinamide]	–	2
COc1cc(F)c(-c2cccc(C(=O)Nc3cnccc3[C@H]3C[C@@H](N)C[C@@H](C(F)(F)F)C3)n2)c(F)c1 [Example 109, N-(4-((1R,3R,5S)-3-amino-5-(trifluoromethyl)cyclohexyl)pyridin-3-yl)-6-(2,6-difluoro-4-methoxyphenyl)picolinamide]	–	1
C[C@H]1C[C@@H](c2ccncc2NC(=O)c2nc(-c3c(F)cccc3F)c(F)cc2N)C[C@@H](O)[C@@H]1O [Example 121, 3-amino-6-(2,6-difluorophenyl)-N-(4-((1R,3R,4R,5S)-3,4-methylcyclohexyl)pyridin-3-yl)-5-fluoropicolinamide]	2	–
CC1(C)C[C@H](N)C[C@H](c2ccncc2NC(=O)c2ccc(F)c(-c3c(F)cc(O)cc3F)n2)C1 [Example 122, N-(4-((1R,5R)-5-amino-3,3-dimethylcyclohexyl)pyridin-3-yl)-6-(2,6-difluoro-4-hydroxyphenyl)-5-fluoropicolinamide]	–	1
C[C@H]1C[C@@H](c2ccncc2NC(=O)c2ccc(F)c(-c3c(F)cccc3F)n2)C[C@@H](N)[C@H]1F [Example 139, N-(4-((1R,3R,4S,5S)-3-amino-4-fluoro-5-methylcyclohexyl)-pyridin-3-yl)-6-(2,6-difluorophenyl)-5-fluoropicolinamide]	4	–
